Data from patent US8822533B1, “Methods and compositions for repelling and/or killing insects” (The United States of America, as represented by the …, priority 2011, dated 2014).

Tests used:
[1] = system: Ae. aegypti + An. albimanus; assay: Bite protection of FRACUs (Defender-M) treated with insecticides; type: in vivo; conditions: FRACU (Defender-M) sleeve; allethrin 0.085, bioresmethrin 0.106, etofenprox 0.101, bifenthrin 0.101 mg/cm^2
Description: Biological Evaluation: Bite protection assays were conducted with laboratory-reared 7-12 day old mosquitoes or sand flies. The species used throughout these studies are Aedes aegypti (Orlando, 1952) and Phlebotomus papatasi sand flies (Jerusalem, 1983). Females were pre-selected using either a hand draw box or a mechanical aspirator.
An assay was conducted by wearing sewn sleeves made from clothing material. Treated specimens were assayed with untreated controls to correct for the bite resistance afforded by material construction and composition. The untreated control was tested at the beginning of the experiment, followed by successively higher candidate repellent concentrations on sleeves. Sleeves were sewn from a cut out single ply trapezoidal pattern (33.2 cm×21 cm×25.5 cm height) of material. Sleeves were normally with a candidate repellent at the EPA permethrin label rate of 0.52% weight on (+5% tolerance) or less (0.125 mg/cm^2 for the 50/50 Nylon/Cotton (NYCO) Army Combat Uniform and 0108 mg./cm2 for the 65% Rayon/25% Para-aramid/10% Nylon Fire-Resistant Army Combat Uniform). Permethrin was 35:65cis: trans, 95.85% technical material. Experimental repellents were received as neat samples with <5% impurities. The treatment occurred by dissolution of repellent in suitable quantity of acetone to saturate the clothing, but minimizing excess solution. Excess solution was quantified and this amount of excess was then used to calculate the estimated amount of repellent applied to the material.
Insects were maintained in colony at approximately 78° F. and 60-80% RH. The photoperiod was 12:12. The mosquito cages were approximately 60000 cm^3 and each contained 175 to 225 female mosquitoes. […] Cages for sand fly work were slightly smaller (15000 cm^3) and constructed of acrylic for filming purposes and with screens on the exterior edges to allow air flow through the system. About 20-40 sand flies were released in cages for each assay. Assays started when the sleeved arm was inserted through the sleeve into the cage. Normally the hand was protected by a glove, but there were situations (i.e. sand fly data presented here) when the ability of a repellent to protect the untreated hand was determined. The assay periods were 15 min for the mosquitoes and 25-30 minutes for sand flies. The insects were allowed to land, probe and possibly bloodfeed during this time. At the conclusion of the experiment, all insects were knocked down or aspirated and the percentage that bloodfed of the total female test population in the cage was recorded. The protect level was calculated by Abbott's formula as a percentage reduction in bites compared to the untreated fabric control sleeve.
We were able to examine several treatments on the FRACU fabric sleeves (Table 7). […]

[2] = system: bed bugs (Cimex lectularius); assay: Bed bug mortality on treated filter paper; type: in vivo
Description: Knockdown data and mortality for volatile pyrethroids against bed bugs (Cimex lectularius): Compounds were dissolved in acetone to yield concentrations of 100 μg/cm^2, 10 μg/cm^2, and 1 μg/cm^2 and 47 mm filter paper disks were treated. Acetone-treated filter paper was used as a negative control. Mixed stages (nymphs and adults) of a laboratory colony of the bed bug Cimex lectularius were placed on the treated filter paper in glass Petri dishes and mortality was recorded 24 h later, at which time bed bugs were removed to untreated surfaces. 24 h after this transfer another assessment of mortality was made to see if any dead or moribund bugs had recovered.

[3] = system: bed bugs (Cimex lectularius); assay: Bed bug mortality on treated filter paper; type: in vivo; conditions: 24 h
[4] = system: Phlebotomus papatasi sand flies; assay: Sleeve bite protection assay on treated uniform fabric, sand flies; type: in vivo, Phlebotomus papatasi (Jerusalem, 1983); conditions: FRACU, permethrin sleeve 0.134 mg/cm^2 + treated strip, hand ungloved; strip TL-I-73 0.167, transfluthrin 0.161 mg/cm2
Description: (§1) Biological Evaluation: Bite protection assays were conducted with laboratory-reared 7-12 day old mosquitoes or sand flies. The species used throughout these studies are Aedes aegypti (Orlando, 1952) and Phlebotomus papatasi sand flies (Jerusalem, 1983). Females were pre-selected using either a hand draw box or a mechanical aspirator. An assay was conducted by wearing sewn sleeves made from clothing material. Treated specimens were assayed with untreated controls to correct for the bite resistance afforded by material construction and composition. The untreated control was tested at the beginning of the experiment, followed by successively higher candidate repellent concentrations on sleeves. Sleeves were sewn from a cut out single ply trapezoidal pattern (33.2 cm×21 cm×25.5 cm height) of material. […] Permethrin was 35:65cis: trans, 95.85% technical material. Experimental repellents were received as neat samples with <5% impurities. The treatment occurred by dissolution of repellent in suitable quantity of acetone to saturate the clothing, but minimizing excess solution. Excess solution was quantified and this amount of excess was then used to calculate the estimated amount of repellent applied to the material. […] The photoperiod was 12:12. The mosquito cages were approximately 60000 cm^3 and each contained 175 to 225 female mosquitoes. […] Cages for sand fly work were slightly smaller (15000 cm^3) and constructed of acrylic for filming purposes and with screens on the exterior edges to allow air flow through the system. About 20-40 sand flies were released in cages for each assay. Assays started when the sleeved arm was inserted through the sleeve into the cage. Normally the hand was protected by a glove, but there were situations (i.e. sand fly data presented here) when the ability of a repellent to protect the untreated hand was determined. The assay periods were 15 min for the mosquitoes and 25-30 minutes for sand flies. The insects were allowed to land, probe and possibly bloodfeed during this time. At the conclusion of the experiment, all insects were knocked down or aspirated and the percentage that bloodfed of the total female test population in the cage was recorded. The protect level was calculated by Abbott's formula as a percentage reduction in bites compared to the untreated fabric control sleeve. Specific conditions for bioassays are noted with corresponding data contained in the Tables.

[5] = system: Mosquitoes, either Aedes aegypti (Liverpool) or Anopheles stephensi Liston; assay: K&D module in vitro bioassay: biting protection, knockdown and mortality; type: in vivo
Description: In vitro bioassays were conducted as described by Klun et. al. (Klun, J. A., et al., J. Med. Entomol., 40: 293-299 (2005)). Each test replicate consisted of 3 treatments: a control (EtOH); a standard (Deet, 4.54 nmol/μl); and an experimental compound (pyrethroid analogs, 4.54 nmol/ul). The 3 treatments were randomly assigned to consecutive cells in 2, 6-cell reservoirs connected in series to a single water-bath pump; thus, 4 replicates could be tested/run. Tests were performed in an Air Science USA hood, with an air movement velocity of approx. 110-120 ft./min., temperature of 25-27° C., and RH of 15-25%. A 6-celled reservoir was connected to and heated by a constant-temperature (38° C.) water circulator (Lauda E100, Wobser GMGH and Co., Konigshofell, Germany).
Prior to each test, the upper surface of each reservoir was coated with a thin layer of high-vacuum silicone grease (Dow Corning Corp., Midland, Mich.), and the cells then filled (approx. 6 ml. capacity) or topped-off with either: (1) expired human red blood cells suspended in citrate-phosphate-dextrose-adenine (CPDA) solution, not more than 1 month past expiration date, and to which 110 mg ATP/35 ml. blood-CPDA had been added on the day of testing; or (2) CPDA+ATP×^−3, usually made up or diluted to 10^−3 ATP on the day of testing. The filled cells were then covered with an Edicol collagen membrane (Devro, Sandy Run, S.C.) strip, and then with a just-treated (110 μl of 4.54 nmol/μl treatment or control solution) organdy cloth (G Street Fabrics, Rockville, Md.) strip. Mosquitoes used in tests were either Aedes aegypti_(Liverpool) or Anopheles stephensi_Liston. K&D modules containing 5 adult females/cell were placed over a Teflon separator atop each reservoir; the sliding floors opened allowing access to the treated organdy cloth and membrane-covered cell; and the number of mosquitoes biting (proboscis inserted through the cloth) and/or observed to be engorged within each cell at the end of a 3-5 min. exposure period was recorded. Mosquitoes were used only once in a test, and then frozen and discarded.
Only tests in which 3 or more females fed in the control cell were analyzed, as lower feeding rates are indicative of substandard feeding readiness of that group of mosquitoes.
[…] Data were collected to record knockdown in 6 minutes, one hour and 24 hours post exposure.

Ae. aegypti mosquitoes = assay: Sleeve bite protection assay on treated uniform fabric, mosquitoes; type: in vivo, Aedes aegypti (Orlando, 1952)
Description: as §1

[6] = ACU sleeve, No Glove on hand, permethrin 0.118, transfluthrin 0.108 mg/cm^2
[7] = ACU sleeve, stored one year then tested, concentrations as E1
[8] = FRACU sleeve, concentrations as E9
[9] = FRACU, untreated sleeve + treated strip, Ultrathon (34.34% DEET) on hand, TL-I-73 0.163, transfluthrin 0.158 mg/cm^2
[10] = FRACU, untreated sleeve + treated strip, hand gloved, TL-I-73 0.163, transfluthrin 0.158 mg/cm^2

Cc1c(COC(=O)[C@@H]2[C@H](/C=C(\Cl)C(F)(F)F)C2(C)C)cccc1-c1ccccc1 (racemic) [Bifenthrin]
Bite Protection (% ± SE) (Ae. aegypti + An. albimanus) [1]: 91.5 ± 1.1%

C=CCC1=C(C)C(OC(=O)C2C(C=C(C)C)C2(C)C)CC1=O (stereo not drawn) [Allethrin]
Bite Protection (% ± SE) (Ae. aegypti + An. albimanus) [1]: 98.7 ± 0.8%

CC(C)=C[C@@H]1[C@@H](C(=O)OCc2coc(Cc3ccccc3)c2)C1(C)C [Bioresmethrin]
Bite Protection (% ± SE) (Ae. aegypti + An. albimanus) [1]: 98.1 ± 0.8%

CCOc1ccc(C(C)(C)COCc2cccc(Oc3ccccc3)c2)cc1 [Etofenprox]
Bite Protection (% ± SE) (Ae. aegypti + An. albimanus) [1]: 94.9 ± 0.6%

Cc1c(Cl)c(Cl)c(COC(=O)[C@@H]2[C@@H](C=C(Cl)Cl)C2(C)C)c(Cl)c1Cl [TL-I-111]
mortality at 1 µg/cm2 ([2]; Cimex lectularius, 24 h): 0%
mortality at 10 µg/cm2 ([2]; Cimex lectularius, 24 h): 100%
mortality at 100 µg/cm2 ([2]; Cimex lectularius, 24 h): 100%
mortality at 5 µg/cm2 [3]: 100%

CC1(C)[C@H](C=C(Cl)Cl)[C@H]1C(=O)OCc1c(F)c(F)cc(F)c1F [Transfluthrin, transfluthrin]
Bite Protection (%) [4]: significant protection from sand fly bites to the unprotected hand
Knockdown 6 min (%) ([5]; 2.5 nM\cm^2, K&D module): 100%
Knockdown 24 hours (%) ([5]; 2.5 nM\cm^2, K&D module): 100%
Not feeding 3 minutes (%) ([5]; 2.5 nM\cm^2, K&D module): 100%
Knockdown 1 hour (%) ([5]; 2.5 nmol/cm^2, K&D module): 100%
Knockdown 6 min (%) ([5]; 25 nM\cm^2, K&D module): 100%
Knockdown 24 hours (%) ([5]; 25 nM\cm^2, K&D module): 100%
Not feeding 3 minutes (%) ([5]; 25 nM\cm^2, K&D module): 100%
Knockdown 1 hour (%) ([5]; 25 nmol/cm^2, K&D module): 100%
mortality at 0.0025 µM ([5]; Aedes aegypti, 24 h): 100%
mortality at 0.025 µM ([5]; Aedes aegypti, 48 h): 100%
mortality (in words) ([2]; at either 100 μg/cm^2 or 10 μg/cm^2): no mortality or mortality less than 100%
mortality (value in parentheses) ([2]; concentration not clearly stated for this group): 20%
Blood-fed # (Ae. aegypti mosquitoes; ACU (50/50 NYCO) sleeve, glove on hand, 15 min, permethrin 0.118, transfluthrin 0.108, TL-I-107 0.107, TL-I-141 0.109, TL-I-105 0.107, TL-I-73 0.102 mg/cm^2): 0 #
Bite Protection (%) (Ae. aegypti mosquitoes; ACU (50/50 NYCO) sleeve, glove on hand, Abbott's formula vs untreated sleeve, concentrations as E1): 100%
Fed (%) (Ae. aegypti mosquitoes; ACU (50/50 NYCO) sleeve, glove on hand, concentrations as E1): 0.0%
Blood-fed # (Ae. aegypti mosquitoes; [6]): 4 #
Fed (%) (Ae. aegypti mosquitoes; [6]): 2.1%
protecting non-repellent treated surfaces of skin (i.e. the hand) (Ae. aegypti mosquitoes; ACU sleeve, glove removed from hand, compared with permethrin): superior to permethrin
Bite Protection (%) (Ae. aegypti mosquitoes; [7]): 100%
Fed (%) (Ae. aegypti mosquitoes; [7]): 0.0%
Blood-fed # (Ae. aegypti mosquitoes; ACU sleeve, treated specimens stored in refrigerator for one year then tested, concentrations as E1): 0 #
bite protection (Ae. aegypti mosquitoes; Defender-M FRACU sleeve at 0.52 mg/cm2): 100%
Blood-fed # (Ae. aegypti mosquitoes; FRACU (65% Rayon, 10% Nylon, 25% Para-aramid) sleeve, permethrin 0.071, combination permethrin 0.031 + transfluthrin 0.038, transfluthrin 0.052 mg/cm^2): 0 #
Bite Protection (%) (Ae. aegypti mosquitoes; [8]): 100.0%
Fed (%) (Ae. aegypti mosquitoes; [8]): 0.0%
Bite Protection (%) (Ae. aegypti mosquitoes; FRACU sleeve, concentrations as E9, listed as transfluthrin): 100%
Bite Protection (%) (Ae. aegypti mosquitoes; FRACU, permethrin sleeve 0.134 mg/cm^2 + treated strip, hand gloved, strip TL-I-73 0.167, transfluthrin 0.161 mg/cm^2): 100%
Blood-fed # (Ae. aegypti mosquitoes; FRACU, untreated sleeve + treated strip (20.5 cm × 2.6 cm) at wrist, hand gloved, TL-I-73 0.163, transfluthrin 0.158 mg/cm^2): 11 #
Blood-fed # (Ae. aegypti mosquitoes; FRACU, untreated sleeve + treated strip, Ultrathon 12 hr repellent (34.34% DEET) on hand, TL-I-73 0.163, transfluthrin 0.158 mg/cm^2): 6 #
Bite Protection (%) (Ae. aegypti mosquitoes; [9]): 89.2%
Fed (%) (Ae. aegypti mosquitoes; [9]): 2.9%
Bite Protection (%) (Ae. aegypti mosquitoes; [10]): 93.3%
Fed (%) (Ae. aegypti mosquitoes; [10]): 5.5%
